Test results taken from patent US20260231941A1, “HERBICIDAL COMPOSITIONS” (SYNGENTA CROP PROTECTION AG, priority 2023, published 2026).

What was measured:
Test in all cases: Post-emergence efficacy, glasshouse, percentage damage to plant
Type in all cases: in vivo
[1] = test system: Phalaris minor (PHAMI); conditions: 14 days, Table B9
From the text: (§1) Seeds of a variety of test species are sown in standard soil in pots (Digitaria sanguinalis (DIGSA), Echinochloa crus-galli (ECHCG), Setaria faberi (SETFA), Stellaria media (STEME), Amaranthus retroflexus (AMARE), Chenopodium album (CHEAL), Abutilon theophrasti (ABUTH), Ipomoea hederacea (IPOHE), Phalaris minor (PHAMI), Eleusine indica (ELEIN), Sorghum bicolor (SORVU), Euphorbia heterophylla (EPHHL), Fallopia convolvulus (POLCO)), and cultivated under controlled conditions in a glasshouse (at 24/16° C., day/night; 14 hours light; 65% humidity), the plants are sprayed with an aqueous spray solution derived from the dissolution of Component (A) in acetone and IF50 (11.12% Emulsogen EL360 TM+44.44% N-methylpyrrolidone+44.44% Dowanol DPM glycol ether) and Component (B) which was then diluted to the required concentration using 0.2% Genapol XO80 (CAS No. 9043-30-5) in water as the diluent. Test compounds or compositions are applied at the rates stated. The test plants are then grown in a glasshouse under controlled conditions in a glasshouse (at […], day/night; 14 hours light; 65% humidity) and watered twice daily. After 14 days, the test is evaluated for the percentage damage caused to the plant (100=total damage to plant; 0=no damage to plant), and the result are shown below in table B1 to B18.

[2] = test system: Euphorbia heterophylla (EPHHL); conditions: 14 days, Table B11
From the text: as §1

[3] = test system: Ipomoea hederacea (IPOHE); conditions: 14 days
From the text: as §1

[4] = test system: Eleusine indica (ELEIN); conditions: 14 days, Table B17
From the text: as §1

[5] = test system: Sorghum bicolor (SORVU); conditions: 14 days, Table B10
From the text: as §1

[6] = test system: Digitaria sanguinalis (DIGSA); conditions: 14 days, Table B1
From the text: as §1

[7] = test system: Echinochloa crus-galli (ECHCG); conditions: growth stage 4 true leaves, 14 days
From the text: as §1

[8] = test system: Chenopodium album (CHEAL); conditions: 14 days, Table B6
From the text: as §1

[9] = test system: Fallopia convolvulus (POLCO); conditions: 14 days
From the text: as §1

[10] = test system: Setaria faberi (SETFA); conditions: 14 days, Table B3
From the text: as §1

[11] = test system: Abutilon theophrasti (ABUTH); conditions: 14 days, Table B7
From the text: as §1

[12] = test system: Stellaria media (STEME); conditions: 14 days
From the text: as §1

[13] = test system: Amaranthus retroflexus (AMARE); conditions: 14 days
From the text: as §1

[14] = Compound (Ia) 0.46875 g/Ha alone
[15] = Compound (Ia) 0.9375 g/Ha alone

## CCOC(=O)C1(C)CC(c2cc(-n3c(=O)cc(C(F)(F)F)n(C)c3=O)c(F)cc2Cl)=NO1 (stereo not drawn) [Compound (Ia)]
[1]; [14]
  Observed Activity: 7.5%
[1]; [15]
  Observed Activity: 11.3%
[1]; Compound (Ia) 1.875 g/Ha alone
  Observed Activity: 25.8%
[1]; Compound (Ia) 3.75 g/Ha alone
  Observed Activity: 57.0%
[1]; Compound (Ia) 7.5 g/Ha alone
  Observed Activity: 72.8%
[2]; [15]
  Observed Activity: 33.3%
[2]; Compound (Ia) 1.875 g/Ha alone
  Observed Activity: 45.3%
[3]; Compound (Ia) 0.46875 g/Ha alone, Table B8
  Observed Activity: 53.8%
[3]; Compound (Ia) 0.46875 g/Ha alone, Table B16
  Observed Activity: 53.8%
[3]; Compound (Ia) 1.875 g/Ha alone, Table B8
  Observed Activity: 83.8%
[3]; Compound (Ia) 1.875 g/Ha alone, Table B16
  Observed Activity: 83.8%
[4]; [14]
  Observed Activity: 37.5%
[4]; Compound (Ia) 7.5 g/Ha alone
  Observed Activity: 89.8%
[5]; Compound (Ia) 7.5 g/Ha alone
  Observed Activity: 72.3%
[6]; [15]
  Observed Activity: 23.8%
[7]; Compound (Ia) 3.75 g/Ha alone, Table B2
  Observed Activity: 52.5%
[7]; Compound (Ia) 3.75 g/Ha alone, Table B13
  Observed Activity: 31.3%
[7]; Compound (Ia) 7.5 g/Ha alone, Table B2
  Observed Activity: 68.8%
[7]; Compound (Ia) 7.5 g/Ha alone, Table B13
  Observed Activity: 47.5%
[8]; Compound (Ia) 1.875 g/Ha alone
  Observed Activity: 77.5%
[9]; Compound (Ia) 0.9375 g/Ha alone, Table B18
  Observed Activity: 82.0%
[9]; Compound (Ia) 1.875 g/Ha alone, Table B12
  Observed Activity: 79.8%
[9]; Compound (Ia) 1.875 g/Ha alone, Table B18
  Observed Activity: 79.8%
[10]; Compound (Ia) 3.75 g/Ha alone
  Observed Activity: 73.8%
[11]; [14]
  Observed Activity: 25.0%
[11]; [15]
  Observed Activity: 67.5%
[11]; Compound (Ia) 1.875 g/Ha alone
  Observed Activity: 88.8%
[12]; Compound (Ia) 0.9375 g/Ha alone, Table B4
  Observed Activity: 27.5%
[12]; Compound (Ia) 1.875 g/Ha alone, Table B4
  Observed Activity: 43.8%
[12]; Compound (Ia) 7.5 g/Ha alone, Table B14
  Observed Activity: 67.5%
[13]; Compound (Ia) 0.9375 g/Ha alone, Table B5
  Observed Activity: 51.3%
[13]; Compound (Ia) 0.9375 g/Ha alone, Table B15
  Observed Activity: 51.3%
[13]; Compound (Ia) 1.875 g/Ha alone, Table B5
  Observed Activity: 73.8%

## CP(=O)(O)CCC(N)C(=O)O (stereo not drawn) [Glufosinate, glufosinate]
[1]; Glufosinate 1.875 g/Ha alone
  Observed Activity: 2.5%
[1]; Glufosinate 3.75 g/Ha alone
  Observed Activity: 5.0%
[1]; Glufosinate 7.5 g/Ha alone
  Observed Activity: 12.5%
[1]; Glufosinate 15 g/Ha alone
  Observed Activity: 7.5%
[1]; Glufosinate 30 g/Ha alone
  Observed Activity: 12.5%
[2]; Glufosinate 3.75 g/Ha alone
  Observed Activity: 12.5%
[2]; Glufosinate 7.5 g/Ha alone
  Observed Activity: 12.5%
[3]; Glufosinate 7.5 g/Ha alone, Table B8
  Observed Activity: 2.5%
[3]; Glufosinate 30 g/Ha alone, Table B8
  Observed Activity: 7.5%
[5]; Glufosinate 30 g/Ha alone
  Observed Activity: 24.0%
[6]; Glufosinate 7.5 g/Ha alone
  Observed Activity: 5.0%
[7]; Glufosinate 30 g/Ha alone, Table B2
  Observed Activity: 47.5%
[7]; Glufosinate 60 g/Ha alone, Table B2
  Observed Activity: 67.5%
[7]; Glufosinate 120 g/Ha alone, Table B2
  Observed Activity: 91.5%
[8]; Glufosinate 15 g/Ha alone
  Observed Activity: 0.0%
[9]; Glufosinate 7.5 g/Ha alone, Table B12
  Observed Activity: 7.5%
[10]; Glufosinate 30 g/Ha alone
  Observed Activity: 15.0%
[11]; Glufosinate 7.5 g/Ha alone
  Observed Activity: 7.5%
[11]; Glufosinate 15 g/Ha alone
  Observed Activity: 10.0%
[12]; Glufosinate 7.5 g/Ha alone, Table B4
  Observed Activity: 0.0%
[12]; Glufosinate 30 g/Ha alone, Table B4
  Observed Activity: 2.5%
[13]; Glufosinate 7.5 g/Ha alone, Table B5
  Observed Activity: 0.0%
[13]; Glufosinate 15 g/Ha alone, Table B5
  Observed Activity: 0.0%
[13]; Glufosinate 30 g/Ha alone, Table B5
  Observed Activity: 2.5%

## CP(=O)(O)CC[C@H](N)C(=O)O [L-Glufosinate, L-glufosinate]
[3]; L-Glufosinate 7.5 g/Ha alone, Table B16
  Observed Activity: 5.0%
[3]; L-Glufosinate 15 g/Ha alone, Table B16
  Observed Activity: 15.0%
[4]; L-Glufosinate 1.875 g/Ha alone
  Observed Activity: 0.0%
[4]; L-Glufosinate 30 g/Ha alone
  Observed Activity: 20.0%
[7]; L-Glufosinate 30 g/Ha alone, Table B13
  Observed Activity: 5.0%
[7]; L-Glufosinate 60 g/Ha alone, Table B13
  Observed Activity: 22.5%
[7]; L-Glufosinate 120 g/Ha alone, Table B13
  Observed Activity: 32.5%
[9]; L-Glufosinate 3.75 g/Ha alone, Table B18
  Observed Activity: 10.0%
[9]; L-Glufosinate 7.5 g/Ha alone, Table B18
  Observed Activity: 25.0%
[12]; L-Glufosinate 120 g/Ha alone, Table B14
  Observed Activity: 32.5%
[13]; L-Glufosinate 7.5 g/Ha alone, Table B15
  Observed Activity: 5.0%
[13]; L-Glufosinate 15 g/Ha alone, Table B15
  Observed Activity: 7.5%
